Read-outs that look alike come from different tables or passages of the source.
Columns and labels:
rat VAChT = target: T1, rat VAChT (Rattus norvegicus, UniProt Q62666); assay: Competition binding, displacement of [3H]vesamicol from rat VAChT
T1 sequence (Q62666 1-530): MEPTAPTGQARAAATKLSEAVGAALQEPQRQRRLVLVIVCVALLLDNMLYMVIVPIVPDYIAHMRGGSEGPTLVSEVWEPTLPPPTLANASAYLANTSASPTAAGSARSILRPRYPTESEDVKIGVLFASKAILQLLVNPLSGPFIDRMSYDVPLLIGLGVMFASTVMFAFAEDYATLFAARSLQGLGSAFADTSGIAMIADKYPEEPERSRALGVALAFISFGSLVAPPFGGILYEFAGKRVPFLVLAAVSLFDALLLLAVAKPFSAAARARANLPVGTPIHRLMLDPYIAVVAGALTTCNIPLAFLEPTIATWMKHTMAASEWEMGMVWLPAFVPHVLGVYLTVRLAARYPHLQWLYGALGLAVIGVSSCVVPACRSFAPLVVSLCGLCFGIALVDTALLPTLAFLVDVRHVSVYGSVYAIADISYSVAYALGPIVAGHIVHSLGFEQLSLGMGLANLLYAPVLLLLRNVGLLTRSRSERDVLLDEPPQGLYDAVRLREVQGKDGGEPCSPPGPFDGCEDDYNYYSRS

Strongyloides ratti L3 = format: in vivo; settings: 72 h incubation, 1 replicate
[1] = test system: Danio rerio (zebrafish) embryos; assay: Danio rerio (zebrafish) embryo abnormal developmental phenotype; format: in vivo
[2] = test system: Pristionchus pacificus young adult animals; assay: Pristionchus pacificus young adult abnormal locomotory behaviour on solid agar; format: in vivo; settings: read-out: P. pacificus, young adult 1 h any phene at 1 h (EC50 (μM))
[3] = test system: Heligmosomoides polygyrus larval stage 3 (L3) worms; format: in vivo; settings: 72 h incubation, one replicate
C. elegans L3 larvae = C. elegans L3 larvae abnormal locomotory behaviour on solid agar; settings: solid agar MYOB + E. coli OP50, mean of 4 replicates; for % C. elegans L3 larvae any phene 1 h (conc.): 1 h exposure; for % C. elegans L3 larvae any phene 6 h (conc.): 6 h exposure; for % C. elegans L3 larvae any phene 24 h (conc.): 24 h exposure
Protocol: 20 animals were scored after either 1, 6 or 24 hours of exposure to drug (as indicated) per replicate. […] Data are reported as the mean % of animals with abnormal phenotype over 4 independent replicates.

D. immitis microfilariae = D. immitis microfilariae immobility assay; format: in vivo; settings: 72 h, read-out: D. immitis microfilariae immobility EC50 (μM)
[4] = test system: D. immitis larval stage 3 (L3) worms; assay: D. immitis L3 development assay; format: in vivo; settings: 72 h, read-out: D. immitis L3 development EC50 (μM)
[5] = displacement of [3H]vesamicol, rat VAChT expressed in P12 cells, read-out: ratVAChT Ki
[6] = read-out: D. rerio (zebrafish) any phenotype EC50 (μM)

Row | Compound | Ki (rat VAChT; [5]) [µM] | S. ratti L3 % lethality 25 μM (Strongyloides ratti L3) [%] | EC50 [1, 6] [µM] | EC50 ([2]; 1 h) [µM] | H. Polygyrus % lethality L3 25 μM [3] [%] | % C. elegans L3 larvae any phene 1 h (conc.) (C. elegans L3 larvae; 3.75 uM) [%] | % C. elegans L3 larvae any phene 6 h (conc.) (C. elegans L3 larvae; 3.75 uM) [%] | % C. elegans L3 larvae any phene 24 h (conc.) (C. elegans L3 larvae; 3.75 uM) [%] | % C. elegans L3 larvae any phene 1 h (conc.) (C. elegans L3 larvae; 15 uM) [%] | % C. elegans L3 larvae any phene 6 h (conc.) (C. elegans L3 larvae; 15 uM) [%] | % C. elegans L3 larvae any phene 24 h (conc.) (C. elegans L3 larvae; 15 uM) [%] | % C. elegans L3 larvae any phene 1 h (conc.) (C. elegans L3 larvae; 60 uM) [%] | % C. elegans L3 larvae any phene 6 h (conc.) (C. elegans L3 larvae; 60 uM) [%] | % C. elegans L3 larvae any phene 24 h (conc.) (C. elegans L3 larvae; 60 uM) [%] | EC50 (D. immitis microfilariae) [µM] | EC50 [4] [µM] | Ki (rat VAChT) [µM] | EC50 ([1]; 1 day post fertilization embryos through 48 h of development, tested at 15 and 3.75 μM, select compounds at 60 and 30 μM, read-out: D. rerio (zebrafish) any phenotype EC50) [µM] | EC50 ([2]; 1 h exposure, tested at 3.75, 15 and 60 μM, NA = not active, no phenotype at 60 μM) [µM]
1 | FC(F)(F)c1cccc(N2CCN(CC3CCCC3)CC2)c1 [VI-k] | 6.68 | 0 | > 60 | > 60 | 34.1 | 18.3 | 0.8 | 0.0 | 94.2 | 30.8 | 8.3 | 95.0 | 70.0 | 80.8 | – | – | – | – | –
2 | Cc1cc(N2CCN(CC3CCCCC3)CC2)ccc1[N+](=O)[O-] [V-b] | – | – | 5.1 | > 60 | – | 2.5 | 0.0 | 0.0 | 20.8 | 3.3 | 0.0 | 62.5 | 41.7 | 9.2 | 5.1 | 14 | – | – | –
3 | FC(F)(F)c1cccc(N2CCN(C3CCCCCCC3)CC2)c1 [VI-i] | – | 0 | 4 | 49.6 | 11.2 | 26.7 | 0.0 | 0.0 | 70.0 | 0.0 | 0.0 | 96.7 | 58.3 | 5.0 | – | > 50 | – | – | –
4 | Cc1ccc(N2CCN(CC3CC=CCC3)CC2)cc1 (stereo not shown) [VI-e] | 0.208 | 31.6 | 32.5 | 5.7 | 0 | 36.7 | 5.8 | 0.0 | 96.7 | 46.7 | 5.0 | 100.0 | 100.0 | 99.2 | – | – | – | – | –
5 | O[C@@H]1CCCC[C@H]1N1CCC(c2ccccc2)CC1 (racemic) [vesamicol, reference compound] | – | 17.3 | 21.1 | > 60 | 0 | 0.0 | 0.0 | 0.0 | 0.0 | 0.8 | 0.0 | 11.7 | 1.7 | 0.0 | – | – | 0.0303 | – | –
6 | Cc1ccc(N2CCN(C3CCC(C)C3)CC2)cc1 (stereo not shown) [VI-a] | 0.411 | 28.1 | > 15 | – | 31.6 | 58.3 | 1.7 | 0.0 | 98.3 | 74.2 | 20.0 | 100.0 | 100.0 | 100.0 | – | > 50 | – | – | –
7 | O=C(C1CCCCC1)N1CCN(c2ccc([N+](=O)[O-])cc2)CC1 [III-a] | – | – | – | – | – | 0.8 | 0.8 | 0.0 | 0.8 | 5.8 | 0.0 | 4.2 | 24.2 | 0.0 | – | > 50 | – | > 15 | > 60
8 | Cc1ccc(N2CCN(CC3CC4C=CC3C4)CC2)cc1 (stereo not shown) [VI-c] | 0.159 | 0 | 16.9 | – | 7.6 | 33.8 | 7.5 | 0.0 | 100.0 | 64.2 | 10.0 | 100.0 | 84.2 | 100.0 | – | > 50 | – | – | –
